Data taken from US10206394B2, “Herbicidal compounds” (Syngenta Participations AG, priority 2014, dated 2019).
Where two headings read alike, the source gives them in different places.

Columns and labels:
Experiment in all cases: Glasshouse assay for herbicidal activity (pre- and post-emergence), percentage phytotoxicity
Assay type in all cases: in vivo
[1] = test system: Echinochloa crus-galli (ECHCG); settings: Echinochloa crus-galli
How it was run: (§1)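 Visually rated damage, 0–100%. PRE spray 1 d after sowing, scored 20 DAA; POST spray ~12 d, scored 15 DAA. Glasshouse at 65% humidity, 16 h day.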

Avena fatua (AVEFA) = settings: Avena fatua
How it was run: as §1

[2] = test system: Alopecurus myosuroides (ALOMY); settings: Alopecurus myosuroides
How it was run: as §1

Lolium perenne (LOLPE) = settings: Lolium perenne
How it was run: as §1

[3] = post-emergence, 360 h, Rate 250 g/ha, post-emergence, assessed visually 15 DAA, 100%=total damage, 0%=no damage, read-out: Post-emergence herbicidal activity (percentage phytotoxicity) ECHCG POST
[4] = pre-emergence, 480 h, Rate 250 g/ha, pre-emergence, assessed visually 20 DAA, 100%=total damage, 0%=no damage, read-out: Pre-emergence herbicidal activity (percentage phytotoxicity) ECHCG PRE
[5] = post-emergence, 360 h, Rate 250 g/ha, post-emergence, assessed visually 15 DAA, 100%=total damage, 0%=no damage, read-out: Post-emergence herbicidal activity (percentage phytotoxicity) AVEFA POST
[6] = pre-emergence, 480 h, Rate 250 g/ha, pre-emergence, assessed visually 20 DAA, 100%=total damage, 0%=no damage, read-out: Pre-emergence herbicidal activity (percentage phytotoxicity) AVEFA PRE
[7] = post-emergence, 360 h, Rate 250 g/ha, post-emergence, assessed visually 15 DAA, 100%=total damage, 0%=no damage, read-out: Post-emergence herbicidal activity (percentage phytotoxicity) ALOMY POST
[8] = pre-emergence, 480 h, Rate 250 g/ha, pre-emergence, assessed visually 20 DAA, 100%=total damage, 0%=no damage, read-out: Pre-emergence herbicidal activity (percentage phytotoxicity) ALOMY PRE
[9] = post-emergence, 360 h, Rate 250 g/ha, post-emergence, assessed visually 15 DAA, 100%=total damage, 0%=no damage, read-out: Post-emergence herbicidal activity (percentage phytotoxicity) LOLPE POST
[10] = pre-emergence, 480 h, Rate 250 g/ha, pre-emergence, assessed visually 20 DAA, 100%=total damage, 0%=no damage, read-out: Pre-emergence herbicidal activity (percentage phytotoxicity) LOLPE PRE
[11] = post-emergence, 360 h, POST-emergence, rate 250 g/ha, visual score 15 DAA (100%=total damage, 0%=no damage), read-out: Post-emergence herbicidal activity (percentage phytotoxicity) ECHCG POST
[12] = pre-emergence, 480 h, PRE-emergence, rate 250 g/ha, visual score 20 DAA (100%=total damage, 0%=no damage), read-out: Pre-emergence herbicidal activity (percentage phytotoxicity) ECHCG PRE
[13] = post-emergence, 360 h, POST-emergence, rate 250 g/ha, visual score 15 DAA (100%=total damage, 0%=no damage), read-out: Post-emergence herbicidal activity (percentage phytotoxicity) AVEFA POST
[14] = pre-emergence, 480 h, PRE-emergence, rate 250 g/ha, visual score 20 DAA (100%=total damage, 0%=no damage), read-out: Pre-emergence herbicidal activity (percentage phytotoxicity) AVEFA PRE
[15] = post-emergence, 360 h, POST-emergence, rate 250 g/ha, visual score 15 DAA (100%=total damage, 0%=no damage), read-out: Post-emergence herbicidal activity (percentage phytotoxicity) ALOMY POST
[16] = pre-emergence, 480 h, PRE-emergence, rate 250 g/ha, visual score 20 DAA (100%=total damage, 0%=no damage), read-out: Pre-emergence herbicidal activity (percentage phytotoxicity) ALOMY PRE
[17] = post-emergence, 360 h, POST-emergence, rate 250 g/ha, visual score 15 DAA (100%=total damage, 0%=no damage), read-out: Post-emergence herbicidal activity (percentage phytotoxicity) LOLPE POST
[18] = pre-emergence, 480 h, PRE-emergence, rate 250 g/ha, visual score 20 DAA (100%=total damage, 0%=no damage), read-out: Pre-emergence herbicidal activity (percentage phytotoxicity) LOLPE PRE

Compound: Cc1cc(C)c(C2C(=O)CC(CC(=O)NCc3ncccc3C)C2=O)c(C)c1 (stereo not drawn) [Compound B67]
- pest or weed control at 250 g/ha ([1]; post-emergence, 360 h, 250 g/ha, post-emergence, 15 DAA, visual assessment (100%=total damage, 0%=no damage), read-out: Post-emergence herbicidal activity (percentage phytotoxicity) ECHCG POST): 80%
- pest or weed control at 250 g/ha ([1]; pre-emergence, 480 h, 250 g/ha, pre-emergence, 20 DAA, visual assessment (100%=total damage, 0%=no damage), read-out: Pre-emergence herbicidal activity (percentage phytotoxicity) ECHCG PRE): 90%
- pest or weed control at 250 g/ha (Avena fatua (AVEFA); post-emergence, 360 h, 250 g/ha, post-emergence, 15 DAA, visual assessment (100%=total damage, 0%=no damage), read-out: Post-emergence herbicidal activity (percentage phytotoxicity) AVEFA POST): 80%
- pest or weed control at 250 g/ha (Avena fatua (AVEFA); pre-emergence, 480 h, 250 g/ha, pre-emergence, 20 DAA, visual assessment (100%=total damage, 0%=no damage), read-out: Pre-emergence herbicidal activity (percentage phytotoxicity) AVEFA PRE): 10%
- pest or weed control at 250 g/ha ([2]; post-emergence, 360 h, 250 g/ha, post-emergence, 15 DAA, visual assessment (100%=total damage, 0%=no damage), read-out: Post-emergence herbicidal activity (percentage phytotoxicity) ALOMY POST): 90%
- pest or weed control at 250 g/ha ([2]; pre-emergence, 480 h, 250 g/ha, pre-emergence, 20 DAA, visual assessment (100%=total damage, 0%=no damage), read-out: Pre-emergence herbicidal activity (percentage phytotoxicity) ALOMY PRE): 90%
- pest or weed control at 250 g/ha (Lolium perenne (LOLPE); post-emergence, 360 h, 250 g/ha, post-emergence, 15 DAA, visual assessment (100%=total damage, 0%=no damage), read-out: Post-emergence herbicidal activity (percentage phytotoxicity) LOLPE POST): 70%
- pest or weed control at 250 g/ha (Lolium perenne (LOLPE); pre-emergence, 480 h, 250 g/ha, pre-emergence, 20 DAA, visual assessment (100%=total damage, 0%=no damage), read-out: Pre-emergence herbicidal activity (percentage phytotoxicity) LOLPE PRE): 90%

Compound: Cc1cc(-c2ccc(Cl)cn2)cc(C)c1C1C(=O)CC(CC(=O)NCc2ncccc2Cl)C1=O (stereo not drawn) [Compound A132]
- pest or weed control at 250 g/ha [1, 3]: 100%
- pest or weed control at 250 g/ha [1, 4]: 100%
- pest or weed control at 250 g/ha (Avena fatua (AVEFA); [5]): 100%
- pest or weed control at 250 g/ha (Avena fatua (AVEFA); [6]): 90%
- pest or weed control at 250 g/ha [2, 7]: 100%
- pest or weed control at 250 g/ha [2, 8]: 90%
- pest or weed control at 250 g/ha (Lolium perenne (LOLPE); [9]): 100%
- pest or weed control at 250 g/ha (Lolium perenne (LOLPE); [10]): 90%

Compound: Cc1cc(-c2ncc(F)cn2)cc(C)c1C1C(=O)CC(CC(=O)N2CCOCC2)C1=O (stereo not drawn) [Compound B276]
- pest or weed control at 250 g/ha [1, 11]: 100%
- pest or weed control at 250 g/ha [1, 12]: 100%
- pest or weed control at 250 g/ha (Avena fatua (AVEFA); [13]): 90%
- pest or weed control at 250 g/ha (Avena fatua (AVEFA); [14]): 80%
- pest or weed control at 250 g/ha [2, 15]: 90%
- pest or weed control at 250 g/ha [2, 16]: 100%
- pest or weed control at 250 g/ha (Lolium perenne (LOLPE); [17]): 100%
- pest or weed control at 250 g/ha (Lolium perenne (LOLPE); [18]): 90%

Compound: CNC(=O)CC1CC(=O)C(c2c(C)cc(-c3ncc(F)cc3F)cc2C)C1=O (stereo not drawn) [Compound B269]
- pest or weed control at 250 g/ha [1, 11]: 100%
- pest or weed control at 250 g/ha [1, 12]: 100%
- pest or weed control at 250 g/ha (Avena fatua (AVEFA); [13]): 100%
- pest or weed control at 250 g/ha (Avena fatua (AVEFA); [14]): 100%
- pest or weed control at 250 g/ha [2, 15]: 100%
- pest or weed control at 250 g/ha [2, 16]: 100%
- pest or weed control at 250 g/ha (Lolium perenne (LOLPE); [17]): 100%
- pest or weed control at 250 g/ha (Lolium perenne (LOLPE); [18]): 100%

Compound: Cc1cc(C)c(C2C(=O)CC(CC(=O)N(C)C(C)C)C2=O)c(C)c1 (stereo not drawn) [Compound A161]
- pest or weed control at 250 g/ha [1, 3]: 80%
- pest or weed control at 250 g/ha [1, 4]: 100%
- pest or weed control at 250 g/ha (Avena fatua (AVEFA); [5]): 30%
- pest or weed control at 250 g/ha (Avena fatua (AVEFA); [6]): 30%
- pest or weed control at 250 g/ha [2, 7]: 70%
- pest or weed control at 250 g/ha [2, 8]: 20%
- pest or weed control at 250 g/ha (Lolium perenne (LOLPE); [9]): 90%
- pest or weed control at 250 g/ha (Lolium perenne (LOLPE); [10]): 100%

Compound: Cc1cc(-c2ccc(F)cn2)cc(C)c1C1C(=O)CC(CC(=O)NCc2cccs2)C1=O (stereo not drawn) [Compound B397]
- pest or weed control at 250 g/ha ([1]; post-emergence, 360 h, Rate 250 g/ha, post-emergence, visual assessment 15 DAA, 100%=total damage, 0%=no damage, read-out: Post-emergence herbicidal activity (percentage phytotoxicity) ECHCG POST): 100%
- pest or weed control at 250 g/ha ([1]; pre-emergence, 480 h, Rate 250 g/ha, pre-emergence, visual assessment 20 DAA, 100%=total damage, 0%=no damage, read-out: Pre-emergence herbicidal activity (percentage phytotoxicity) ECHCG PRE): 100%
- pest or weed control at 250 g/ha (Avena fatua (AVEFA); post-emergence, 360 h, Rate 250 g/ha, post-emergence, visual assessment 15 DAA, 100%=total damage, 0%=no damage, read-out: Post-emergence herbicidal activity (percentage phytotoxicity) AVEFA POST): 90%
- pest or weed control at 250 g/ha (Avena fatua (AVEFA); pre-emergence, 480 h, Rate 250 g/ha, pre-emergence, visual assessment 20 DAA, 100%=total damage, 0%=no damage, read-out: Pre-emergence herbicidal activity (percentage phytotoxicity) AVEFA PRE): 80%
- pest or weed control at 250 g/ha ([2]; post-emergence, 360 h, Rate 250 g/ha, post-emergence, visual assessment 15 DAA, 100%=total damage, 0%=no damage, read-out: Post-emergence herbicidal activity (percentage phytotoxicity) ALOMY POST): 90%
- pest or weed control at 250 g/ha ([2]; pre-emergence, 480 h, Rate 250 g/ha, pre-emergence, visual assessment 20 DAA, 100%=total damage, 0%=no damage, read-out: Pre-emergence herbicidal activity (percentage phytotoxicity) ALOMY PRE): 70%
- pest or weed control at 250 g/ha (Lolium perenne (LOLPE); post-emergence, 360 h, Rate 250 g/ha, post-emergence, visual assessment 15 DAA, 100%=total damage, 0%=no damage, read-out: Post-emergence herbicidal activity (percentage phytotoxicity) LOLPE POST): 90%
- pest or weed control at 250 g/ha (Lolium perenne (LOLPE); pre-emergence, 480 h, Rate 250 g/ha, pre-emergence, visual assessment 20 DAA, 100%=total damage, 0%=no damage, read-out: Pre-emergence herbicidal activity (percentage phytotoxicity) LOLPE PRE): 70%
